Results published in ChEMBL document CHEMBL1201861, “Genomics of Drug Sensitity in Cancer screening data, Wellcome Trust Sanger Institute”.

Tests used:
Experiment in all cases: cells
Details in all cases: Homo sapiens
[1] = system: TE-6; type: functional, cell-based;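 further: growth inhibition of TE-6 cells, read out with a cell viability assay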
Description: SANGER: Inhibition of human TE-6 cell growth in a cell viability assay.

[2] = system: OCUB-M; type: functional, cell-based;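 further: growth inhibition of the cancer cell line, read out through a cell viability assay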
Description: SANGER: Inhibition of human OCUB-M cell growth in a cell viability assay.

[3] = system: ES4; type: functional, cell-based;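 further: growth inhibition of human ES4 cells, read out by a cell viability assay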
Description: SANGER: Inhibition of human ES4 cell growth in a cell viability assay.

[4] = system: A388; type: functional, cell-based;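 further: growth inhibition of human A388 cells, read out with a cell viability assay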
Description: SANGER: Inhibition of human A388 cell growth in a cell viability assay.

[5] = system: EW-13; type: functional, cell-based;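 further: growth inhibition of EW-13 cells, read out with a cell viability assay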
Description: SANGER: Inhibition of human EW-13 cell growth in a cell viability assay.

[6] = system: DSH1; type: functional, cell-based;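 further: growth inhibition of human DSH1 cells, measured with a cell viability readout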
Description: SANGER: Inhibition of human DSH1 cell growth in a cell viability assay.

[7] = system: EW-1; type: functional, cell-based;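 further: growth inhibition of the human EW-1 cell line, read out by a cell viability assay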
Description: SANGER: Inhibition of human EW-1 cell growth in a cell viability assay.

[8] = system: SCH; type: functional, cell-based;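 further: growth inhibition of human SCH cells, read out in a cell viability assay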
Description: SANGER: Inhibition of human SCH cell growth in a cell viability assay.

[9] = system: TE-11; type: functional, cell-based;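 further: growth inhibition of human TE-11 cells, read out by a cell viability assay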
Description: SANGER: Inhibition of human TE-11 cell growth in a cell viability assay.

[10] = system: OS-RC-2; type: functional, cell-based;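 further: growth inhibition of human OS-RC-2 cells, measured by a cell viability assay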
Description: SANGER: Inhibition of human OS-RC-2 cell growth in a cell viability assay.

[11] = system: COR-L88; type: functional, cell-based;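 further: growth inhibition of COR-L88 cells, read out with a cell viability assay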
Description: SANGER: Inhibition of human COR-L88 cell growth in a cell viability assay.

[12] = system: A704; type: functional, cell-based;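 further: growth inhibition of human A704 cells, read out with a cell viability assay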
Description: SANGER: Inhibition of human A704 cell growth in a cell viability assay.

[13] = system: NCI-H82; type: functional, cell-based;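 further: growth inhibition of NCI-H82 cells, measured with a cell viability readout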
Description: SANGER: Inhibition of human NCI-H82 cell growth in a cell viability assay.

[14] = system: LNCaP-Clone-FGC; type: functional, cell-based
Description: SANGER: Inhibition of human LNCaP-Clone-FGC cell growth in a cell viability assay.

[15] = system: LXF-289 cell line; type: functional, cell-based
Description: SANGER: Inhibition of human LXF-289 cell growth in a cell viability assay.

[16] = system: D-263MG; type: functional, cell-based
Description: SANGER: Inhibition of human D-263MG cell growth in a cell viability assay.

[17] = system: MMAC-SF; type: functional, cell-based;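 further: growth inhibition of human MMAC-SF cells, read out with a cell viability assay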
Description: SANGER: Inhibition of human MMAC-SF cell growth in a cell viability assay.

[18] = system: LAMA-84; type: functional, cell-based;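 further: growth inhibition of LAMA-84 cells, read out with a cell viability assay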
Description: SANGER: Inhibition of human LAMA-84 cell growth in a cell viability assay.

[19] = system: KS-1; type: functional, cell-based;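 further: growth inhibition of KS-1 cells, read out with a cell viability assay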
Description: SANGER: Inhibition of human KS-1 cell growth in a cell viability assay.

[20] = system: BB49-HNC; type: functional, cell-based;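 further: cell viability assay read-out, reported as inhibition of BB49-HNC cell growth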
Description: SANGER: Inhibition of human BB49-HNC cell growth in a cell viability assay.

[21] = system: A498; type: functional, cell-based;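 further: growth inhibition of human A498 cells, read out with a cell viability assay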
Description: SANGER: Inhibition of human A498 cell growth in a cell viability assay.

[22] = system: LB1047-RCC; type: functional, cell-based;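 further: inhibition of cell growth, determined with a cell viability assay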
Description: SANGER: Inhibition of human LB1047-RCC cell growth in a cell viability assay.

[23] = system: CCRF-CEM; type: functional, cell-based;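 further: inhibition of CCRF-CEM cell growth, measured by a cell viability assay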
Description: SANGER: Inhibition of human CCRF-CEM cell growth in a cell viability assay.

[24] = system: CTV-1; type: functional, cell-based;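 further: growth inhibition of the cell line, read out with a cell viability assay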
Description: SANGER: Inhibition of human CTV-1 cell growth in a cell viability assay.

[25] = system: MHH-NB-11; type: functional, cell-based;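 further: growth inhibition of human MHH-NB-11 cells, read out by a cell viability assay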
Description: SANGER: Inhibition of human MHH-NB-11 cell growth in a cell viability assay.

[26] = system: A3-KAW; type: functional, cell-based;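 further: growth inhibition of human A3-KAW cells, read out with a cell viability assay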
Description: SANGER: Inhibition of human A3-KAW cell growth in a cell viability assay.

[27] = system: IST-MEL1; type: functional, cell-based;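 further: growth inhibition of the cell line, read out with a cell viability assay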
Description: SANGER: Inhibition of human IST-MEL1 cell growth in a cell viability assay.

[28] = system: KM12; type: functional, cell-based;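 further: KM12 cell growth inhibition, read out with a cell viability assay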
Description: SANGER: Inhibition of human KM12 cell growth in a cell viability assay.

[29] = system: TE-10; type: functional, cell-based;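 further: growth inhibition of TE-10 cells, measured by a cell viability assay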
Description: SANGER: Inhibition of human TE-10 cell growth in a cell viability assay.

[30] = system: LB831-BLC; type: functional, cell-based;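 further: growth inhibition of LB831-BLC cells, read out with a cell viability assay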
Description: SANGER: Inhibition of human LB831-BLC cell growth in a cell viability assay.

[31] = system: SK-UT-1; type: functional, cell-based;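 further: growth inhibition of SK-UT-1 cells, measured by a cell viability assay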
Description: SANGER: Inhibition of human SK-UT-1 cell growth in a cell viability assay.

[32] = system: BV-173; type: functional, cell-based
Description: SANGER: Inhibition of human BV-173 cell growth in a cell viability assay.

[33] = system: HEL; type: functional, cell-based;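 further: growth inhibition of HEL cells, read out with a cell viability assay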
Description: SANGER: Inhibition of human HEL cell growth in a cell viability assay.

[34] = system: MEG-01; type: functional, cell-based;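 further: growth inhibition of MEG-01 cells, read out by a cell viability assay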
Description: SANGER: Inhibition of human MEG-01 cell growth in a cell viability assay.

[35] = system: KARPAS-45; type: functional, cell-based;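 further: inhibition of cell line growth, read out through a viability assay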
Description: SANGER: Inhibition of human KARPAS-45 cell growth in a cell viability assay.

[36] = system: C2BBe1; type: functional, cell-based;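 further: growth inhibition of C2BBe1 cells, read out through a viability assay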
Description: SANGER: Inhibition of human C2BBe1 cell growth in a cell viability assay.

[37] = system: JAR; type: functional, cell-based;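 further: growth inhibition of human JAR cells determined with a cell viability assay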
Description: SANGER: Inhibition of human JAR cell growth in a cell viability assay.

[38] = system: KM-H2; type: functional, cell-based;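 further: growth inhibition of KM-H2 cells, read out by a cell viability assay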
Description: SANGER: Inhibition of human KM-H2 cell growth in a cell viability assay.

[39] = system: KE-37; type: functional, cell-based;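 further: growth inhibition of KE-37 cells, read out with a cell viability assay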
Description: SANGER: Inhibition of human KE-37 cell growth in a cell viability assay.

[40] = system: SK-LMS-1; type: functional, cell-based;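 further: growth inhibition of human SK-LMS-1 cells, read out with a cell viability assay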
Description: SANGER: Inhibition of human SK-LMS-1 cell growth in a cell viability assay.

[41] = system: RCC10RGB; type: functional, cell-based;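 further: growth inhibition of human RCC10RGB cells, read out by a cell viability assay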
Description: SANGER: Inhibition of human RCC10RGB cell growth in a cell viability assay.

[42] = system: HuTu80; type: functional, cell-based, HUTU-80;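 further: growth inhibition of HuTu80 human cells, determined with a cell viability readout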
Description: SANGER: Inhibition of human HUTU-80 cell growth in a cell viability assay.

[43] = system: ES5; type: functional, cell-based;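 further: growth inhibition of human ES5 cells, read out by a cell viability assay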
Description: SANGER: Inhibition of human ES5 cell growth in a cell viability assay.

[44] = system: RH-1; type: functional, cell-based;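 further: growth inhibition of human RH-1 cells, read out with a cell viability assay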
Description: SANGER: Inhibition of human RH-1 cell growth in a cell viability assay.

[45] = system: KY821; type: functional, cell-based;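 further: growth inhibition of human KY821 cells, read out by a cell viability assay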
Description: SANGER: Inhibition of human KY821 cell growth in a cell viability assay.

[46] = system: SNU-5; type: functional, cell-based;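 further: cell viability readout used to measure growth inhibition in human NCI-SNU-5 cells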
Description: SANGER: Inhibition of human NCI-SNU-5 cell growth in a cell viability assay.

[47] = system: DOHH-2; type: functional, cell-based;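 further: growth inhibition of human DOHH-2 cells, read out with a cell viability assay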
Description: SANGER: Inhibition of human DOHH-2 cell growth in a cell viability assay.

[48] = system: Mo; type: functional, cell-based
Description: SANGER: Inhibition of human Mo-T cell growth in a cell viability assay.

[49] = system: NCI-H1304; type: functional, cell-based;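 further: growth inhibition of the cancer cell line, measured in a cell viability assay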
Description: SANGER: Inhibition of human NCI-H1304 cell growth in a cell viability assay.

[50] = system: NOMO-1; type: functional, cell-based;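 further: growth inhibition of human NOMO-1 cells measured by a cell viability assay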
Description: SANGER: Inhibition of human NOMO-1 cell growth in a cell viability assay.

[51] = system: COLO-684; type: functional, cell-based
Description: SANGER: Inhibition of human COLO-684 cell growth in a cell viability assay.

[52] = system: L-428; type: functional, cell-based
Description: SANGER: Inhibition of human L-428 cell growth in a cell viability assay.

[53] = system: NTERA-2-cl-D1; type: functional, cell-based;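 further: inhibition of cell growth, measured with a cell viability assay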
Description: SANGER: Inhibition of human NTERA-S-cl-D1 cell growth in a cell viability assay.

[54] = system: KNS-42; type: functional, cell-based;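 further: growth inhibition of KNS-42 cells, read out with a cell viability assay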
Description: SANGER: Inhibition of human KNS-42 cell growth in a cell viability assay.

[55] = system: MN-60; type: functional, cell-based;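 further: growth inhibition of the MN-60 cell line, determined with a cell viability assay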
Description: SANGER: Inhibition of human MN-60 cell growth in a cell viability assay.

[56] = system: GT3TKB; type: functional, cell-based
Description: SANGER: Inhibition of human GT3TKB cell growth in a cell viability assay.

[57] = system: KMOE-2; type: functional, cell-based
Description: SANGER: Inhibition of human KMOE-2 cell growth in a cell viability assay.

[58] = system: MOLT-16; type: functional, cell-based
Description: SANGER: Inhibition of human MOLT-16 cell growth in a cell viability assay.

[59] = system: BT-474; type: functional, cell-based
Description: SANGER: Inhibition of human BT-474 cell growth in a cell viability assay.

[60] = system: MFM-223; type: functional, cell-based
Description: SANGER: Inhibition of human MFM-223 cell growth in a cell viability assay.

[61] = system: COLO-824; type: functional, cell-based
Description: SANGER: Inhibition of human COLO-824 cell growth in a cell viability assay.

[62] = system: BE-13; type: functional, cell-based
Description: SANGER: Inhibition of human BE-13 cell growth in a cell viability assay.

[63] = system: HL-60; type: functional, cell-based
Description: SANGER: Inhibition of human HL-60 cell growth in a cell viability assay.

[64] = system: C8166; type: functional, cell-based
Description: SANGER: Inhibition of human C8166 cell growth in a cell viability assay.

[65] = system: ETK-1; type: functional, cell-based
Description: SANGER: Inhibition of human ETK-1 cell growth in a cell viability assay.

[66] = system: 8-MG-BA; type: functional, cell-based
Description: SANGER: Inhibition of human 8-MG-BA cell growth in a cell viability assay.

For C/C=C(/C)C(=O)O[C@H]1C(C)=C2[C@H]([C@@H]1OC(=O)CCCCCCC)[C@@](C)(OC(C)=O)C[C@H](OC(=O)CCC)[C@@]1(O)[C@H]2OC(=O)[C@@]1(C)O [THAPSIGARGIN], the IC50 [1] was 17.8 nM, the IC50 [2] was 0.597 nM and the IC50 [3] was < 2 nM. It also gave an IC50 [4] of 1.39 nM, an IC50 [5] of 2.31 nM and an IC50 [6] of 13.9 nM. For the same compound, the IC50 [7] was 3.88 nM, the IC50 [8] was > 512 nM and the IC50 [9] was 9.14 nM. It also gave an IC50 [10] of 24.3 nM, an IC50 [11] of 266 nM and an IC50 [12] of 247 nM. For the same compound, the IC50 [13] was 31.1 nM, the IC50 [14] was 32.2 nM and the IC50 [15] was < 2 nM. The IC50 [16] was 37.2 nM, the IC50 [17] was 28.3 nM and the IC50 [18] was 19.4 nM. For the same compound, the IC50 [19] was 3.61 nM, the IC50 [20] was > 512 nM and the IC50 [21] was > 512 nM. The IC50 [22] was 7.05 nM, the IC50 [23] was 30.9 nM and the IC50 [24] was 5.2 nM. It also gave an IC50 [25] of 45.1 nM, an IC50 [26] of 1.98 nM and an IC50 [27] of 0.788 nM. For the same compound, the IC50 [28] was 13.4 nM, the IC50 [29] was 1.57 nM and the IC50 [30] was 3.94 nM. The IC50 [31] was 23.3 nM, the IC50 [32] was 2.81 nM and the IC50 [33] was 46.3 nM. The IC50 [34] was 10.8 nM, the IC50 [35] was 8.06 nM and the IC50 [36] was 29.3 nM. The IC50 [37] was > 512 nM, the IC50 [38] was < 2 nM and the IC50 [39] was 7.53 nM. The IC50 [40] was < 2 nM, the IC50 [41] was > 512 nM and the IC50 [42] was 0.657 nM. The IC50 [43] was > 512 nM, the IC50 [44] was 43.4 nM and the IC50 [45] was 0.636 nM. For the same compound, the IC50 [46] was 91.4 nM, the IC50 [47] was 22.3 nM and the IC50 [48] was > 512 nM. For the same compound, the IC50 [49] was 59.1 nM, the IC50 [50] was > 512 nM and the IC50 [51] was 345 nM. The IC50 [52] was > 512 nM, the IC50 [53] was < 2 nM and the IC50 [54] was 16.9 nM. The IC50 [55] was 69.2 nM, the IC50 [56] was 12.2 nM and the IC50 [57] was 82.9 nM. The IC50 [58] was 4.52 nM, the IC50 [59] was 210 nM and the IC50 [60] was > 512 nM. For the same compound, the IC50 [61] was 64.6 nM, the IC50 [62] was 7.35 nM and the IC50 [63] was > 512 nM. For the same compound, the IC50 [64] was 188 nM, the IC50 [65] was < 2 nM and the IC50 [66] was 1.99 nM.

C[C@]1(c2nc3c(C(N)=O)cccc3[nH]2)CCCN1 [VELIPARIB] was tested, and the IC50 [1] was > 5000 nM, the IC50 [2] was > 5000 nM and the IC50 [3] was > 5000 nM. The IC50 [4] was > 5000 nM, the IC50 [5] was > 5000 nM and the IC50 [6] was > 5000 nM. The IC50 [7] was > 5000 nM, the IC50 [8] was > 5000 nM and the IC50 [9] was > 5000 nM. For the same compound, the IC50 [10] was > 5000 nM, the IC50 [11] was > 5000 nM and the IC50 [12] was > 5000 nM. The IC50 [13] was > 5000 nM, the IC50 [14] was > 5000 nM and the IC50 [15] was > 5000 nM. For the same compound, the IC50 [16] was > 5000 nM, the IC50 [17] was > 5000 nM and the IC50 [18] was > 5000 nM. For the same compound, the IC50 [19] was > 5000 nM, the IC50 [20] was > 5000 nM and the IC50 [21] was > 5000 nM. The IC50 [22] was > 5000 nM, the IC50 [23] was > 5000 nM and the IC50 [24] was > 5000 nM. The IC50 [25] was > 5000 nM, the IC50 [26] was > 5000 nM and the IC50 [27] was > 5000 nM. For the same compound, the IC50 [28] was > 5000 nM, the IC50 [29] was > 5000 nM and the IC50 [30] was > 5000 nM. For the same compound, the IC50 [31] was > 5000 nM, the IC50 [32] was > 5000 nM and the IC50 [33] was > 5000 nM. The IC50 [34] was > 5000 nM, the IC50 [35] was > 5000 nM and the IC50 [36] was > 5000 nM. For the same compound, the IC50 [37] was > 5000 nM, the IC50 [38] was > 5000 nM and the IC50 [39] was > 5000 nM. The IC50 [40] was > 5000 nM, the IC50 [41] was > 5000 nM and the IC50 [42] was > 5000 nM. The IC50 [43] was > 5000 nM, the IC50 [44] was > 5000 nM and the IC50 [45] was > 5000 nM. The IC50 [46] was 3130 nM, the IC50 [47] was > 5000 nM and the IC50 [48] was > 5000 nM. For the same compound, the IC50 [49] was > 5000 nM, the IC50 [50] was > 5000 nM and the IC50 [51] was > 5000 nM. The IC50 [52] was > 5000 nM, the IC50 [53] was > 5000 nM and the IC50 [54] was > 5000 nM. For the same compound, the IC50 [55] was > 5000 nM, the IC50 [56] was > 5000 nM and the IC50 [57] was > 5000 nM. The IC50 [58] was > 5000 nM, the IC50 [59] was > 5000 nM and the IC50 [60] was > 5000 nM. The IC50 [61] was > 5000 nM, the IC50 [62] was > 5000 nM and the IC50 [63] was > 5000 nM. For the same compound, the IC50 [64] was > 5000 nM, the IC50 [65] was > 5000 nM and the IC50 [66] was > 5000 nM.
